Measured values taken from ChEMBL document CHEMBL2163248, “Classification of inhibitors of hepatic organic anion transporting polypeptides (OATPs): influence of protein expression on drug-drug interactions” (J Med Chem, 2012).
*1 amine or outer side, *2 acyl side, *3 side chain or, on linkers, in order; H or OH if unused. Where a SMILES comes first, the peptide text is derived from it. Bridges are numbered along the chain shown (N, C = ends). [ ]: non-standard residue; d: D form. Trp(2-yl) = O=C([C@H](Cc1c([*:3])[nH]c2ccccc12)N[*:1])[*:2]; Leu(4R-OH,5-OH) = C[C@](O)(CO)C[C@H](N)C(=O)O; cisHyp = O=C(O)[C@@H]1C[C@H](O)CN1

Legend:
[1] = target: T1, Solute carrier organic anion transporter family member 1B1 (Homo sapiens, UniProt Q9Y6L6); test: Inhibition of human liver OATP1B1 expressed in HEK293 Flp-In cells assessed as reduction in E17-betaG uptake at 20 uM by scintillation counting; conditions: hek293, 20 µM
T1 sequence (Q9Y6L6 whole entry): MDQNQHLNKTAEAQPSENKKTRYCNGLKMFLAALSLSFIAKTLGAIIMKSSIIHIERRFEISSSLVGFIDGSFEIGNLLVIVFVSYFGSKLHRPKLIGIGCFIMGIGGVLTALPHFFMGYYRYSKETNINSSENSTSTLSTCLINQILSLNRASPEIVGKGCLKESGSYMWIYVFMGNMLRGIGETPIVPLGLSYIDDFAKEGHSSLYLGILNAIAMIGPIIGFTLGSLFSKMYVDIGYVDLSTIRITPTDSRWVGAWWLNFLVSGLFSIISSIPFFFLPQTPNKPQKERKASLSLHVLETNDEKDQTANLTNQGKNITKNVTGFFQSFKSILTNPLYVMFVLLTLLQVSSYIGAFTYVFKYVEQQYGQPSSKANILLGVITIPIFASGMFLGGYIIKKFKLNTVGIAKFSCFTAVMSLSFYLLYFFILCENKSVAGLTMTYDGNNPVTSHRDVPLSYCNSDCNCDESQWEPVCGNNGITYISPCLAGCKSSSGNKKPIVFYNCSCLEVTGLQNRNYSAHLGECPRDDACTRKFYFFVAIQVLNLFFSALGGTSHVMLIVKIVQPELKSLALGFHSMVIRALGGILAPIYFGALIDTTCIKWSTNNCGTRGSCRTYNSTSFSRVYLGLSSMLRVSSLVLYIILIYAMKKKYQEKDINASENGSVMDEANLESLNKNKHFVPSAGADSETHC

[2] = target: T2, Solute carrier organic anion transporter family member 1B3 (Homo sapiens, UniProt Q9NPD5); test: Inhibition of human liver OATP1B3 expressed in HEK293 Flp-In cells assessed as reduction in [3H]E17-betaG uptake at 20 uM incubated for 5 mins by scintillation counting; conditions: hek293, 5 min
T2 sequence (Q9NPD5 whole entry): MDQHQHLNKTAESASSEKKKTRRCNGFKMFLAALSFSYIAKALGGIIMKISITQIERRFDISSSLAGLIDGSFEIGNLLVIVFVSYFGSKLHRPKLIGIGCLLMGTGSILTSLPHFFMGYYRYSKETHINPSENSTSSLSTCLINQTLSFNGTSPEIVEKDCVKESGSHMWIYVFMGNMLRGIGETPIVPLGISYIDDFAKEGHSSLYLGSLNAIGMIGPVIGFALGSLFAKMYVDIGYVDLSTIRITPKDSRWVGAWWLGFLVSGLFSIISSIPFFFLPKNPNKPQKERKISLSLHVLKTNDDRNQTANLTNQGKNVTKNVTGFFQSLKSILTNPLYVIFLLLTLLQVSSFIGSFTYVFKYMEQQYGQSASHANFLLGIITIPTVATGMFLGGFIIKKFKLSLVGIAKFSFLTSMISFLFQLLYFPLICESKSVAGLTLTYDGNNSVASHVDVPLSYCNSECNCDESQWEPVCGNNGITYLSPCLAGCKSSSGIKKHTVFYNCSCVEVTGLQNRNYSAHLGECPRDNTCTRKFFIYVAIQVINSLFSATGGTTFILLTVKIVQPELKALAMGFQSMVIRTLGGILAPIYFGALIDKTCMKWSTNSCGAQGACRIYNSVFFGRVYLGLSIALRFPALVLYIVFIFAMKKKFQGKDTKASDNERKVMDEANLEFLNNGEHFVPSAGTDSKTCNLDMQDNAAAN

[3] = target: T3, Solute carrier organic anion transporter family member 2B1 (Homo sapiens, UniProt O94956); test: Inhibition of human liver OATP2B1 expressed in HEK293 Flp-In cells assessed as reduction in [3H]E3S uptake at 20 uM incubated for 5 mins by scintillation counting; conditions: hek293, 5 min
T3 sequence (O94956 whole entry): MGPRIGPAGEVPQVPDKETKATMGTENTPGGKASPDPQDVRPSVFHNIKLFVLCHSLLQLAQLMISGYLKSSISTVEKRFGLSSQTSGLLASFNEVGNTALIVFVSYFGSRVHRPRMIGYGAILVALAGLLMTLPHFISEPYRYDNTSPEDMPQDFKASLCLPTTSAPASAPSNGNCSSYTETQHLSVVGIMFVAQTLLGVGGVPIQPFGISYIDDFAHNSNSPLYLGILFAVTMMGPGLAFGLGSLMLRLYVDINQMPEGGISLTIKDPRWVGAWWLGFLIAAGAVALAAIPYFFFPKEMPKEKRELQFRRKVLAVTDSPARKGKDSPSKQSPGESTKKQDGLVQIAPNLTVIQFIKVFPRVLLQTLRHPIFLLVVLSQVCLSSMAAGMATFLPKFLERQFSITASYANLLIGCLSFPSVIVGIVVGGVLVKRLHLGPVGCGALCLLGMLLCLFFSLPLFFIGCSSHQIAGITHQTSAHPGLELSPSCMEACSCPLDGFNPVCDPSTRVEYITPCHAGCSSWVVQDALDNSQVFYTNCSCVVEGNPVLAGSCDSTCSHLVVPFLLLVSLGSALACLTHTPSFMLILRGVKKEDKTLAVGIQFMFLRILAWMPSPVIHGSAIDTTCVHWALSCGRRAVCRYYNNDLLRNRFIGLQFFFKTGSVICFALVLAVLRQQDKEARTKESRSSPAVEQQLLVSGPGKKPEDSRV

SMILES	INH [1] [%]	INH [2] [%]	INH [3] [%]
Cc1ncc2n1-c1ccc(Cl)cc1C(c1ccccc1F)=NC2 [MIDAZOLAM]	32.9	6.7	22.7
CC#C[C@]1(O)CC[C@H]2[C@@H]3CCC4=CC(=O)CCC4=C3[C@@H](c3ccc(N(C)C)cc3)C[C@@]21C [MIFEPRISTONE]	81.2	80.3	70.7
O=C1c2c(O)ccc(O)c2C(=O)c2c(NCCNCCO)ccc(NCCNCCO)c21 [MITOXANTRONE]	27.2	67.9	48.3
CN(C)C(=O)CCSC(SCCC(=O)O)c1cccc(/C=C/c2ccc3ccc(Cl)cc3n2)c1 (stereo not given) [MK-571]	88.5	80.7	75.2
O=C(NCCN1CCOCC1)c1ccc(Cl)cc1 [MOCLOBEMIDE]	1.7	-3.3	27.5
O=c1c(O)c(-c2ccc(O)cc2O)oc2cc(O)cc(O)c12 [MORIN]	85.2	78.5	71.3
O=C1C[C@@H](c2ccc(O)cc2)Oc2cc(O)cc(O)c21 [NARINGENIN]	34.8	-57.2	32.4
C[C@@H]1O[C@@H](O[C@H]2[C@H](Oc3cc(O)c4c(c3)O[C@H](c3ccc(O)cc3)CC4=O)O[C@H](CO)[C@@H](O)[C@@H]2O)[C@H](O)[C@H](O)[C@H]1O [NARINGIN]	34	37.7	47.1
CCc1nn(CCCN2CCN(c3cccc(Cl)c3)CC2)c(=O)n1CCOc1ccccc1 [NEFAZODONE]	12	61.4	61.5
COC(=O)C1=C(C)NC(C)=C(C(=O)OCCN(C)Cc2ccccc2)C1c1cccc([N+](=O)[O-])c1 (stereo not given) [NICARDIPINE]	65.1	10.1	31.8
CN1CCC[C@H]1c1cccnc1 [NICOTINE]	6.9	11	-16.5
CNC(=O)c1cccnc1 [NICOTINYL METHYLAMIDE]	71.4	-0.5	14.5
C=C(C)[C@@H]1CCC2=CC(=O)C[C@@H](C)[C@]2(C)C1 [NOOTKATONE]	25.6	-3.2	-72.2
CO[C@@H]1[C@@H](OC(N)=O)[C@@H](O)[C@H](Oc2ccc3c(O)c(NC(=O)c4ccc(O)c(CC=C(C)C)c4)c(=O)oc3c2C)OC1(C)C [NOVOBIOCIN]	58.1	84.2	85.6
COc1ccc2[nH]c([S+]([O-])Cc3ncc(C)c(OC)c3C)nc2c1 (stereo not given) [OMEPRAZOLE]	15.9	29.5	11.3
C[C@@H]1O[C@@H](O[C@H]2C[C@@H](O)[C@]3(CO)[C@H]4[C@H](O)C[C@]5(C)[C@@H](C6=CC(=O)OC6)CC[C@]5(O)[C@@H]4CC[C@]3(O)C2)[C@H](O)[C@H](O)[C@H]1O [OUABAIN]	50.5	20.5	-24.1
COc1ccnc(C[S+]([O-])c2nc3ccc(OC(F)F)cc3[nH]2)c1OC (stereo not given) [PANTOPRAZOLE]	15.2	23.4	17.3
Fc1ccc([C@@H]2CCNC[C@H]2COc2ccc3c(c2)OCO3)cc1 [PAROXETINE]	33	12.7	37.5

SMILES	INH [1] [%]	INH [2] [%]	INH [3] [%]
CC1(C)S[C@@H]2[C@H](NC(=O)Cc3ccccc3)C(=O)N2[C@H]1C(=O)O [PENICILLIN G]	8.8	40.9	7.6
C[C@@H]1NC(=O)[C@H](C[C@@](C)(O)CO)NC(=O)[C@@H]2Cc3c([nH]c4ccccc34)SC[C@H](NC(=O)[C@@H]([C@H](C)O)NC1=O)C(=O)N1C[C@@H](O)C[C@H]1C(=O)N[C@@H](C)C(=O)N2 [PHALLOIDIN] (cyclo(A[dT]C[cisHyp]A[Trp(2-yl)][Leu(4R-OH,5-OH)]); thioether 3-6)	26.1	36.2	24.1
CCOc1ccc(NC(C)=O)cc1 [PHENACETIN]	34.2	-0.9	-0.1
[H]/N=C(/N)N/C(=N/[H])NCCc1ccccc1 [PHENFORMIN]	34.5	-2.3	16.7
CCC1(c2ccccc2)C(=O)NC(=O)NC1=O [PHENOBARBITAL]	-3.9	7.3	11
Cc1cccc(C)c1NC(=O)CC12CCCN1CCC2 [PILSICAINIDE]	11.2	-16.8	10.8
CC(C)NCC(O)COc1cccc2[nH]ccc12 (stereo not given) [PINDOLOL]	-24.7	24.5	-10.8
CCc1ccc(CCOc2ccc(CC3SC(=O)NC3=O)cc2)nc1 (stereo not given) [PIOGLITAZONE]	21.9	5.6	-9.9
CN1C(C(=O)Nc2ccccn2)=C(O)c2ccccc2S1(=O)=O [PIROXICAM]	16.2	23.5	68.3
O=C(O)C[C@H](O)C[C@H](O)/C=C/c1c(C2CC2)nc2ccccc2c1-c1ccc(F)cc1 [PITAVASTATIN]	97.4	94.3	63.7
COc1cc2nc(N3CCN(C(=O)c4ccco4)CC3)nc(N)c2cc1OC [PRAZOSIN]	25.1	36.1	1
C[C@]12C=CC(=O)C=C1CC[C@@H]1[C@@H]2[C@@H](O)C[C@@]2(C)[C@H]1CC[C@]2(O)C(=O)CO [PREDNISOLONE]	2.3	9.6	27.6
CCN(CC)CCNC(=O)c1ccc(N)cc1 [PROCAINAMIDE]	21.6	3.4	17.8
CC(=O)[C@H]1CC[C@H]2[C@@H]3CCC4=CC(=O)CC[C@]4(C)[C@H]3CC[C@]12C [PROGESTERONE]	63.9	33.4	-362.6
CC(C)NCC(O)COc1cccc2ccccc12 (stereo not given) [PROPRANOLOL]	8.9	12.8	10.1
O=c1c(O)c(-c2ccc(O)c(O)c2)oc2cc(O)cc(O)c12 [QUERCETIN]	77	21.6	72.6
COc1ccccc1OCC(O)CN1CCN(CC(=O)Nc2c(C)cccc2C)CC1 (stereo not given) [RANOLAZINE]	4.3	-14.9	41.6
